# Read-outs that look alike come from different tables or passages of the source.
# Molecular target: T1, F508delCFTR (Homo sapiens, UniProt P13569, DEL508-508)
# T1 construct: expressed in transfected cells; host or cells: CFBE41o- human lung-derived epithelial cells (CFBE4lo-F508delCFTR-HRP), doxycycline-inducible
# Assay: Cell Surface Expression-Horse Radish Peroxidase (CSE-HRP) Assay;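 on Maximum % activity (with co-corrector): co-corrector and positive control are both the same reference corrector at 2 µM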;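 on Maximum % activity (without co-corrector): percent of the 2 µM on-plate positive control corrector response above DMSO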
# Type: cell-based
# Details: for Maximum % activity (with co-corrector) / Emax: maximum at any tested concentration, normalized to on-plate positive control; for Emax: read-out: Maximum % activity (without co-corrector)
# [1] = test compound without co-corrector, read-out: EC50 (without co-corrector)
# [2] = with co-corrector (2 μM of 3-[(2R,4R)-4-({[1-(2,2-difluoro-1,3-benzodioxol-5-yl)cyclopropyl]carbonyl}amino)-7-methoxy-3,4-dihydro-2H-chromen-2-yl]benzoic acid), read-out: EC50 (with co-corrector)
# [3] = CSE-HRP, test compound without co-corrector, read-out: EC50 (without co-corrector)
# [4] = CSE-HRP, with co-corrector (2 μM of 3-[(2R,4R)-4-({[1-(2,2-difluoro-1,3-benzodioxol-5-yl)cyclopropyl]carbonyl}amino)-7-methoxy-3,4-dihydro-2H-chromen-2-yl]benzoic acid), read-out: EC50 (with co-corrector)
# [5] = CSE-HRP, with co-corrector (2 μM)
# [6] = test compound without co-corrector
# [7] = with co-corrector (2 μM of 3-[(2R,4R)-4-({[1-(2,2-difluoro-1,3-benzodioxol-5-yl)cyclopropyl]carbonyl}amino)-7-methoxy-3,4-dihydro-2H-chromen-2-yl]benzoic acid)
# T1 sequence (P13569 with tags, fused parts or gaps DEL508-508): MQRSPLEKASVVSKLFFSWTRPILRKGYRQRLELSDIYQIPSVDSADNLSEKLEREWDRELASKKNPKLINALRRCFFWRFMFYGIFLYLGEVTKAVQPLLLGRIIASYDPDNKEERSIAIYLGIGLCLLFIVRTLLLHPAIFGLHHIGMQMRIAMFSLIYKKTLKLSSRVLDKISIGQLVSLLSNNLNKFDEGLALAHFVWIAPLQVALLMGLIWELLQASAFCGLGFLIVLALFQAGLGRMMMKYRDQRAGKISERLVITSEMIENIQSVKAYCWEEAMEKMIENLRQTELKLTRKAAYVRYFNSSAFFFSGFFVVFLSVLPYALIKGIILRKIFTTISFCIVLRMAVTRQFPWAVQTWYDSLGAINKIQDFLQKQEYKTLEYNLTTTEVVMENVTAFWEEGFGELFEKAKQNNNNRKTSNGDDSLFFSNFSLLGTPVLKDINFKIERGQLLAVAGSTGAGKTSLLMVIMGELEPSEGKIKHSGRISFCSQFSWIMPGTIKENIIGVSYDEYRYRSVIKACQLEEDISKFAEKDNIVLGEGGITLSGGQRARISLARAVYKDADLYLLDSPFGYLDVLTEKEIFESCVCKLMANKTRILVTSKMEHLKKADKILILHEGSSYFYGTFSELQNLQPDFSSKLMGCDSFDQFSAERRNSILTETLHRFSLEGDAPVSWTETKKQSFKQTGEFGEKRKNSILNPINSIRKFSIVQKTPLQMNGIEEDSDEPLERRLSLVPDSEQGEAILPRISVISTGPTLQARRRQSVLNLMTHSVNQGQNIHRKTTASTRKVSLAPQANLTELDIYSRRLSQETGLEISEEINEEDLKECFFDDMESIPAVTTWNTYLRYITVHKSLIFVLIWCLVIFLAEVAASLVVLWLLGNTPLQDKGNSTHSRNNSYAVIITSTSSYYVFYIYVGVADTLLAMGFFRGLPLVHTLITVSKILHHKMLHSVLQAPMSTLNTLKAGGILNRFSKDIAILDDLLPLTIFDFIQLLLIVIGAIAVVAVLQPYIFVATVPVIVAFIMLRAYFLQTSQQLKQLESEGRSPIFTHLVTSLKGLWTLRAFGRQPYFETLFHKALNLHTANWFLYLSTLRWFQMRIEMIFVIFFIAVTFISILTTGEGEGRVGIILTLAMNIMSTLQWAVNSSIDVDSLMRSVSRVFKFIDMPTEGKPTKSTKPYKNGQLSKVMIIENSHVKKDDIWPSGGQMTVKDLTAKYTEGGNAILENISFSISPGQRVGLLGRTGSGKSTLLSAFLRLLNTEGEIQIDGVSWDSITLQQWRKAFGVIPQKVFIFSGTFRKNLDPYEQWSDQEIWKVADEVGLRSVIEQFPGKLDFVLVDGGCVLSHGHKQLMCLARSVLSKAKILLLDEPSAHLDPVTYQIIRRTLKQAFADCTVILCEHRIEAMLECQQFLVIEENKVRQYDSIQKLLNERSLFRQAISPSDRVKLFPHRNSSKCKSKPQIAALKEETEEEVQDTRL
Structure (SMILES),EC50 [1] [µM],EC50 [2] [µM],Maximum % activity (with co-corrector) (with co-corrector (2 μM)),Emax (without co-corrector) [%],EC50 [3] [µM],EC50 [4] [µM],Maximum % activity (with co-corrector) [5],"Emax (CSE-HRP, without co-corrector) [%]",Emax [6] [%],Maximum % activity (with co-corrector) [7]
"COc1ccc(C(C)(C)C)cc1CN[C@H]1[C@H](C(C)(C)C)[C@@H](C(=O)O)N(C(=O)C2CCCCC2)[C@H]1c1ccccc1 [Example 7, (2S,3S,4S,5S)-3-tert-butyl-4-{[(5-tert-butyl-2-methoxyphenyl)methyl]amino}-1-(cyclohexanecarbonyl)-5-phenylpyrrolidine-2-carboxylic acid]",< 1,< 1,+++ (≥350),> 200,,,,,,
COc1ncc(C(C)(C)C)cc1CN[C@H]1[C@H](C(C)(C)C)[C@@H](C(=O)O)N(C(=O)[C@@H]2CCCCO2)[C@H]1c1cccnc1N(C)C [Example I-142],1 to 10,1 to 10,+++ (≥350),> 200,,,,,,
CC(C)c1ccccc1CN[C@@H]1[C@@H](C(C)(C)C)[C@H](C(=O)O)N(C(=O)C2CCCCC2)[C@@H]1c1ccccc1 (racemic) [Example I-35],< 1,< 1,+++ (≥350),< 100,,,,,,
COc1ncc(C2CCCC2)cc1CN[C@H]1[C@H](C(C)(C)C)[C@@H](C(=O)O)N(C(=O)C2CCCCC2)[C@H]1c1cccnc1N(C)C [Example I-132],1 to 10,1 to 10,+++ (≥350),> 200,,,,,,
COc1ccc(C(F)(F)F)cc1CN[C@H]1[C@H](C2(C)CC2)[C@@H](C(=O)O)N(C(=O)C2CCCCC2)[C@H]1c1ccccc1 [Example I-136],1 to 10,1 to 10,+++ (≥350),100 to 200,,,,,,
"COc1ncc(C2CCC2)cc1CN[C@H]1[C@H](C(C)(C)C)[C@@H](C(=O)O)N(C(=O)C2CCCCC2)[C@H]1c1ccccc1 [Example 16, (2S,3S,4S,5S)-3-tert-butyl-4-{[(5-cyclobutyl-2-methoxypyridin-3-yl)methyl]amino}-1-(cyclohexanecarbonyl)-5-phenylpyrrolidine-2-carboxylic acid]",< 1,< 1,+++ (≥350),> 200,,,,,,
COc1ccc(C(C)(C)C)cc1CN[C@H]1[C@H](C(C)(C)C)[C@@H](C(=O)O)N(C(=O)[C@@H]2CCCO2)[C@H]1c1cccnc1N(C)C [Example I-284],,,,,1 to 10,1 to 10,+++ (≥350),> 200,,
COc1ccc(C(C)(C)C)cc1CN[C@H]1[C@H](C(C)(C)C)[C@@H](C(=O)O)N(C(=O)C2CCCCC2)[C@H]1c1ccccc1C(C)C [Example I-185],< 1,< 1,+++ (≥350),> 200,,,,,,
Cc1cc(C(F)(F)F)cc(N[C@@H]2[C@@H](C(C)(C)C)[C@H](C(=O)O)N(C(=O)C3CCC4(CC3)CC4)[C@@H]2c2ccccc2)n1 (racemic) [Example I-37],> 10,1 to 10,++ (≥150 and <350),< 100,,,,,,
COc1ccc(C(F)(F)F)cc1CN[C@@H]1[C@@H](C(C)(C)C)[C@H](C(=O)O)N(C(=O)C2CCCCC2)[C@@H]1c1ccccc1 (racemic) [Example I-6],1 to 10,1 to 10,+++ (≥350),> 200,,,,,,

# More lines, now with the values ahead:
EC50 [1] [µM],EC50 [2] [µM],Maximum % activity (with co-corrector) (with co-corrector (2 μM)),Emax (without co-corrector) [%],EC50 [3] [µM],EC50 [4] [µM],Maximum % activity (with co-corrector) [5],"Emax (CSE-HRP, without co-corrector) [%]",Emax [6] [%],Maximum % activity (with co-corrector) [7],Structure (SMILES)
,,,,1 to 10,1 to 10,+++ (≥350),100 to 200,,,COc1cc(C(F)(F)F)ccc1CN[C@H]1[C@H](C(C)(C)C)[C@@H](C(=O)O)N(C(=O)[C@H]2CCCCO2)[C@H]1c1ccccc1 [II-81]
,,,,1 to 10,1 to 10,+++ (≥350),< 100,,,COc1ccc(C(F)(F)F)cc1CN[C@@H]1[C@@H](C(C)(C)C)[C@H](C(=O)O)N(C(=O)C2CCC(F)(F)CC2)[C@@H]1c1ccccc1 (racemic) [II-68]
1 to 10,1 to 10,,,,,,,< 100,+++ (≥350),Cc1cc(C(F)(F)F)cc(N[C@H]2[C@H](C(C)(C)C)[C@@H](C(=O)O)N(C(=O)C3CCCC(F)(F)C3)[C@H]2c2cccnc2N(C)C)n1 (stereo partly drawn) [II-503]
,,,,< 1,< 1,+++ (≥350),> 200,,,COc1ccc(C2CCCC2)cc1CN[C@H]1[C@H](C(C)(C)C)[C@@H](C(=O)O)N(C(=O)C2CCCCC2)[C@H]1c1ccccc1 [II-193]
1 to 10,1 to 10,,,,,,,< 100,+++ (≥350),"COc1ccc(C(C)(C)C)cc1CN[C@H]1[C@H](C(C)(C)C)[C@@H](C(=O)O)N(C(=O)C2Cc3ccccc3CO2)[C@H]1c1cccnc1N(C)C (single isomer, unassigned) [II-480]"
,,,,1 to 10,1 to 10,+++ (≥350),100 to 200,,,COc1cc(Cl)ccc1CN[C@H]1[C@H](C(C)(C)C)[C@@H](C(=O)O)N(C(=O)[C@H](OC)c2ccccc2)[C@H]1c1cccnc1N(C)C (racemic) [II-47]
< 1,< 1,,,,,,,100 to 200,+++ (≥350),COc1nc(C(C)(C)C)ccc1CN[C@H]1[C@H](C(C)(C)C)[C@@H](C(=O)O)N(C(=O)Cc2ccccc2C)[C@H]1c1ccccc1 [II-429]
1 to 10,< 1,+++ (≥350),,,,,,> 200,,COc1ccc(C(C)(C)C)cc1CN[C@H]1[C@H](C(C)(C)C)[C@@H](C(=O)O)N(C(=O)C2CCCC(C(F)(F)F)C2)[C@H]1c1cccnc1N(C)C (stereo partly drawn) [III-206]
,,,,1 to 10,1 to 10,+++ (≥350),100 to 200,,,COc1ccc(C(C)(C)C)cc1CN[C@H]1[C@H](C(C)(C)C)[C@@H](C(=O)O)N(C(=O)c2ccc3c(c2)OCCCO3)[C@H]1c1ccccc1 [II-230]
1 to 10,1 to 10,++ (≥150 and <350),,,,,,< 100,,COc1ccc(C(C)(C)C)cc1CN[C@H]1[C@H](C(C)(C)C)[C@@](C)(C(=O)O)N(C(=O)[C@H](OC)c2ccccc2)[C@H]1c1ccccc1 [III-215]
1 to 10,< 1,,,,,,,> 200,+++ (≥350),COc1ccc(C(C)(C)C)cc1CN[C@H]1[C@H](C(C)(C)C)[C@@H](C(=O)O)N(C(=O)C(C)Oc2cccc(Cl)c2)[C@H]1c1ccccc1 (stereo partly drawn) [II-330]
> 10,1 to 10,,,,,,,< 100,++ (≥150 and <350),Cc1ccccc1CN[C@@H]1[C@@H](C(C)(C)C)[C@H](C(=O)O)N(C(=O)CC2CCCC2)[C@@H]1c1ccccc1 (racemic) [III-2]
< 1,< 1,+++ (≥350),,,,,,> 200,,COc1ccc(Br)cc1CN[C@H]1[C@H](C(C)(C)C)[C@@H](C(=O)O)N(C(=O)C2CCCCC2)[C@H]1c1ccccc1 [III-118]
1 to 10,1 to 10,++ (≥150 and <350),,,,,,< 100,,COc1ncc(C2CCC2)cc1CN[C@@H]1[C@@H](C(C)(C)C)[C@H](C(=O)O)N(C(=O)[C@@H]2CCCO2)[C@@H]1c1ccccc1Cl [III-236]

# Source: US20180099931A1 (AbbVie S.à.r.l., priority 2016, published 2018)
